# Reference: a melting point compilation (Tetko et al.; mined from patent text by program, amines drawn as free bases though some values may be those of a salt)
row,melting point,SMILES
1,120 to 122 °C,CC(=O)OCCc1ccc2sc(S(N)(=O)=O)cc2c1
2,125 to 127 °C,CCCCCN1C(=O)C(CO)(c2cc3c(cc2O)OCO3)c2ccccc21 (stereo unspecified)
3,130 to 133 °C,CCn1nc(C)cc1C(=O)OC
4,210 to 211 °C,CC(=O)N1c2ccccc2Sc2ccccc21
5,161 to 164 °C,CCc1cc(C(C)=O)c(O)cc1OCc1cccc(C(=O)O)c1
6,108 to 110 °C,CN(C)N=Nc1ccsc1C(=O)O
7,302 to 304 °C,CN(C(=O)c1cccc(C(=O)O)c1)c1ccc2c(=O)n3c(nc2c1)C(=Cc1ccccc1)CC3
8,122 to 129 °C,COC(=O)CCc1cc2cc(Cl)ccc2n1S(=O)(=O)c1ccc2c(c1)OCO2
9,124 to 126 °C,COc1ccc(C#Cc2cccc(CN(O)C(C)=O)c2)cc1
10,146 °C,O=C(O)CCc1cc2ccccc2c(-c2ccccc2)n1
11,139 to 140 °C,Nc1ccc(CC(=O)O)cc1Br
12,123 to 125 °C,N#CCC(=O)NCc1cccc(Cl)c1
13,173 to 175 °C,Cc1cc(=O)c(OCc2ccccc2)c(C(=O)O)o1
14,193 to 194 °C,O=C(O)CNC(=O)c1sc(Nc2ccccc2)c2c1CCc1cnoc1-2
15,80 to 82 °C,CCOC(=O)Cc1cc(Cl)cc(C(=O)c2ccccc2)c1N
16,146 to 147 °C,CC(C)(C)c1cc(C(C)(C)C)n(Cc2ccc(CNc3ccc(CCC(=O)O)c(F)c3)cc2)n1
17,132 to 134 °C,COC(=O)C(C)(C)OCc1cc2cc(Cl)ccc2n1S(=O)(=O)c1ccc2sc(C)nc2c1
18,100 to 101 °C,C#CC(=O)c1cc(C(C)(C)C)c(O)c(C(C)(C)C)c1

row,melting point,SMILES
1,102 °C,CCCCc1ccnc(C2(C(=S)NC)CCCS2)c1 (stereo unspecified)
2,149 to 155 °C,O=C(O)c1cc(Cl)ccc1COc1ccccc1
3,> 250 °C,Cc1ccccc1NC(=O)N[C@H]1C[C@@](N)(C(=O)O)[C@@H]2[C@@H](C(=O)O)[C@@H]21 (relative stereo)
4,134 to 135 °C,COCc1c(C(=O)OC)ncc2[nH]c3ccccc3c12
5,141 to 144 °C,O=C(O)c1cc2cc(Cl)ccc2nc1NC1(C(=O)O)CCc2ccccc21 (stereo unspecified)
6,104 to 108 °C,CC(F)(F)c1cccc(-n2cnc(CO)c2)c1
7,120 to 121 °C,O=C(O)[C@H](Cc1ccc(C(F)(F)F)cc1)[C@@H](O)c1ccc(F)cc1F (racemic)
8,56 to 57 °C,CCOC(=O)c1sc(Cl)nc1-c1ccccc1
9,225 to 227 °C,CC1(C)N(CC(N)=O)C(=O)CN1C(=O)CN1CCCC1=O
10,130 to 131 °C,Cc1nc(-c2ccc(C(F)(F)F)cc2)sc1C(=O)NCc1ccc(OC(C)(C)C(=O)O)cc1
11,90 to 93 °C,COC(=O)[C@H](CO)NC(=O)[C@H](Cc1ccccc1)NC(=O)OC(C)(C)C
12,128 to 129 °C,CCOC(=O)c1c(SC)c(C#N)c(=O)n2ccccc12
13,156 °C,COc1ccc(Oc2ccc(C(=O)NC(C(=O)O)C(C)C)cc2)cc1 (stereo unspecified)
14,142 °C,CCOC(=O)C1=C(C)NC(C=O)=C(C(=O)OCC)C1c1cccc(O)c1 (stereo unspecified)
15,254 to 256 °C,CN(C)C(=O)N1Cc2c(-c3noc(C4CC4)n3)ncn2-c2ccc(Cl)cc21
16,45 °C,CCOC(=O)C(=CN(CC)c1ccc(C=O)s1)C(=O)OCC
17,> 280 °C,N=C(N)NN=C1CCc2ccc(N)cc21
18,133 to 134 °C,Cc1nn(Cc2ccccc2)c2c1C(=O)CC(C)(C)C2

# Continued, molecule first:
row,SMILES,melting point
1,CCCCCc1c(C(C)C)nc(C(C)C)c(C(C)O)c1-c1ccc(F)cc1 (stereo unspecified),83 °C
2,C#CCN1C(=O)COc2cc(F)c(N)cc21,132 to 134 °C
3,CCCCCCCCCOC1C(O)C(CO)OC1n1cnc2c(=O)[nH]c(NC(=O)C(C)C)nc21 (stereo unspecified),168 to 169 °C
4,c1ccc(COC2COC(c3ccco3)OC2)cc1 (stereo unspecified),50 to 52 °C
5,CCc1nc2c(N)nc3ccccc3c2n1OC(C)C,242 to 243 °C
6,Cc1cc(-c2nc3cccnn3c2-c2ccnc(NC(=O)Nc3ccc(C#N)cc3)c2)ccc1F,204 to 206 °C
7,O=c1c2ccccc2nc(CCl)n1-c1cccc(Cl)c1,202 to 205 °C
8,Cn1c(=O)c(-c2c(Cl)cccc2Cl)cc2cnc(Nc3ccc4c(c3)OCO4)nc21,240 to 241 °C
9,FC(F)(F)c1ccc2c(Cl)ncc(Br)c2n1,59 to 60 °C
10,CCCCn1c(=O)cn[nH]c1=O,135 °C
11,O=c1oc(Cc2ccc(Oc3ccccc3)cc2)nn1-c1ccccc1Cl,85 °C
12,CN(C(=O)CCc1ccc(CN2CCC3(CCCC3)CC2)cc1)c1ccc(-c2ccc(Cl)cc2)cc1,119 °C
13,CN(C(=O)C(C)(C)N1C(=O)c2ccccc2C1=O)C(c1ccc(F)cc1)c1ccc(F)cc1,169 to 171 °C
14,COc1cc(OC)c2c(=O)[nH]c(-c3ccc(OCCN4CCCC4)cc3)nc2c1,226 to 227 °C
15,COc1cccc(CN2CCC(n3c(C)c(-c4ccccc4)[nH]c3=O)CC2)c1,227 to 228 °C
16,CC1(C)C2CC=C(CCn3c(=O)nc(-c4ccccc4)c4cc([N+](=O)[O-])ccc43)C1C2 (stereo unspecified),80 to 81 °C
17,CNc1cc(NC)nc(NS(=O)(=O)c2ccc(N)cc2)n1,262 to 263 °C
18,Nc1nc(N)c2c(ccc3[nH]c4c(c32)CCCC4)n1,300 to 303 °C
19,O=C(Nc1nonc1-c1ccccc1)NC1CCC(C(F)(F)F)CC1 (stereo unspecified),212 °C
20,O=C(C=Cc1ccc(Cl)cc1)C=Cc1ccc(Cl)cc1,187 to 189 °C
21,C#Cc1ccc(C2CCC(C3CCC(CCC)CC3)CC2)cc1 (stereo unspecified),71 °C
22,CC(=O)Oc1c(C)c(C)c2c(c1C)CCC(O)O2 (stereo unspecified),115 to 120 °C

row,SMILES,melting point
1,CCCCCn1c2ccccc2c2cc(C(=O)N3CCCCC3)ncc21,126 to 127 °C
2,Cc1cccc(C(=O)Nc2nc(-c3ccccc3)c(-c3ccc(=O)n(C(C)C)n3)s2)c1,198 to 199 °C
3,CC(=O)Oc1cc(-c2nc3ccccc3[nH]c2=O)cc([N+](=O)[O-])c1OC(C)=O,241 to 243 °C
4,COc1cccc(C(=O)Nc2nc(-c3cccc(C#N)c3)c(-c3ccncn3)s2)c1,255 to 256 °C
5,Cn1ccnc1CCc1cc2c(cc1O)CCO2,190 to 191 °C
6,Cc1ccc(-c2cc(CO)c3[nH]c(=O)ccc3c2)c(C)n1,218 to 221 °C
7,CC(C)CN(C[C@H](O)COc1cccc2[nH]c3ccccc3c12)c1ccc(OC(C)(C)C(N)=O)cc1,84 to 86 °C
8,O=C(Nc1cccc2c(OC(=O)c3c(Cl)cccc3Cl)ccnc12)c1c(Cl)cccc1Cl,248 °C
9,CCC1CCC(NC(=O)NS(=O)(=O)c2ccc(CCNC(=O)N3CCC(C)CC3=O)cc2)CC1 (stereo unspecified),178 to 180 °C
10,O=C1C2CCCC2=Nc2ccccc2N1Cc1cccc(OCc2ccccc2)c1 (stereo unspecified),120 to 122 °C
11,O=c1c2c(Cc3cccc(C(F)(F)F)c3)n[nH]c2c2cccnc2n1-c1ccccc1,303 to 305 °C
12,CCOC(=O)C1=C(COCCN=[N+]=[N-])NC(C)=C(C(=O)OC)C1c1cccc(C(F)(F)F)c1Cl (stereo unspecified),143 to 145 °C
13,CCOC(=O)C1=CC(C(=O)c2cc(Cl)ccc2O)=CN2CCc3c([nH]c4ccccc34)C12C(=O)OCC (stereo unspecified),216 °C
14,CNc1cc(-c2ccc(Cl)cc2)nc2nn(C)cc12,182 to 184 °C
15,O=C(Nc1ccnnc1)Nc1cc(F)cc(F)c1,272 to 273 °C
16,O=C(CCl)c1ccc(-c2ccc(S(=O)(=O)C(F)F)cc2)cc1,157 to 159 °C
17,O=C(NCCO)c1cccc(-c2cccc3nn(Cc4ccccc4)cc23)c1,166 to 167 °C
18,O=C1NC(=O)c2c1c(-c1ccccc1Cl)cc1c2cc(CO)n1CCCBr,218 to 220 °C
19,Cc1cc(Br)cc(C#N)c1,85 to 86 °C
20,CN1CCN(C2CC3C4CCC5CC(O)C(N6CCC(O)CC6)CC5(C)C4CCC3(C)C2O)CC1 (stereo unspecified),248 to 250 °C
21,N#CNC(=O)C12CC3CC(CC(C3)C1)C2,164 to 166 °C
22,NC(N)=Nc1nc(N2CCOCC2)nc2c1ccc1ccccc12,235 °C

row,SMILES,melting point
1,COc1cc(-c2n[nH]c(SC)c2C)c(F)cc1Cl,95 to 100 °C
2,O=C(Cc1ccccc1)NC1CN(C(C(=O)O)c2ccc(O)cc2)C1=O (stereo unspecified),134 to 141 °C
3,O=C1c2cccc(Cl)c2C(=O)N1CCN1CCC(c2noc3cc(F)ccc23)CC1,170 to 171 °C
4,Clc1ccccc1CCN1CCN(c2n[nH]c3c2CCc2ccccc2-3)CC1,134 to 136 °C
5,O=c1ccc(S(=O)(=O)n2cc(Cl)c3ccccc32)n[nH]1,> 220 °C
6,COCCNC(=O)c1cccc(-c2ccc(F)c3cc(Cc4cccc(C(F)(F)F)c4)sc23)c1,123 to 124 °C
7,CC1(CN2CCC(Cc3ccc(F)cc3)CC2)CC(c2ccc3[nH]c(=O)oc3c2)=NO1 (stereo unspecified),82 to 86 °C
8,CC(=Cc1ccc(C)cc1)COc1cc(C)c(NC=O)c(C)c1C,167 to 169 °C
9,O=C1CN(c2ccccc2)C(=S)N1Cc1ccccc1,103 °C
10,CN(CC(C)(C)NCc1c(CO)ccc(OCc2ccccc2)c1CO)c1ccccc1,93 to 98 °C
11,CCCNc1ccc(C=O)cc1[N+](=O)[O-],73.6 °C
12,CCC(O)c1ccccc1CS(=O)(=O)NC(=O)Nc1nc(OC)cc(OC)n1 (stereo unspecified),95 to 98 °C
13,C=CCOc1ccc(-c2ccc(C#N)cc2)cc1,68 to 69 °C
14,COc1cc2cc(N)cnc2cc1F,153 °C
15,COc1cc(OS(=O)(=O)OC(F)(F)F)c2c(=O)c3ccc(Cl)cc3n(C)c2c1,234 to 236 °C
16,c1ccc(COc2cc3cc(-c4ccccc4)[nH]c3cc2OCc2ccccc2)cc1,140 to 141 °C
17,CSc1cc2c(cn1)c(=O)n1nccc1n2C,267 °C
18,COc1cc(OC)nc(C2(O)OC(=O)c3c(-c4ccc(Cl)cc4)ccnc32)n1 (stereo unspecified),228 to 231 °C
19,COc1nc(N)nc(-c2ccccc2)c1-c1ccc(=O)n(C(C)C)n1,230 to 233 °C
20,COc1ccccc1CNc1cc(C(=O)Nc2ccccc2)ccc1OC,177 to 179 °C
21,O=C1Nc2cc3c(cc2O[C@H]1CCCO)CCCC3,139 to 140 °C
